In PMC8716824, “Design, Synthesis and Anti-Lung Cancer Evaluation of 1, 2, 3-Triazole Tethered Dihydroartemisinin-Isatin Hybrids” (Frontiers in Pharmacology, 2021):
Read-outs that look alike come from different tables or passages of the source.

What was measured:
[1] = tested on: A549, A549/DOX and A549/DDP lung cancer cell lines; test: MTT antiproliferative assay, ranges pooled over lung cancer cell lines; format: cell-based
Procedure: (§1) The antiproliferative activity of 1,2,3-triazole tethered dihydroartemisinin-isatin hybrids 8a-c and 9a-k against A549, multidrug-resistant A549/DOX and A549/DDP lung cancer cell lines as well as cytotoxicity towards mouse embryonic fibroblast cells NIH/3T3 were assessed by 3-(4,5-dimethylthiazol-2-yl)-2,5-diphenyltetrazolium bromide (MTT) assay, and half maximal inhibitory concentration (IC50) values were listed in Table 2. A549, A549/DOX, and A549/DDP lung cancer cells (2 × 10^3) were plated in each well of a 96-well plate and were allowed to adhere and spread for 24 h. The 1,2,3-triazole tethered dihydroartemisinin-isatin hybrids 8a-c and 9a-k were added to a final concentration of 100 μM, and the cells were cultured for 24 h at 37°C. 3-(4,5-dimethyl-2-thiazolyl)-2,5-diphenyltetrazolium bromide (MTT) solution (10 µL) was added to each well, and the cultures were incubated for an additional 4 h. A further 100 µL of […] was added and incubation continued overnight. The absorbance at 540 nm was determined in each well with a 96-well plate reader. The growth of the treated cells was compared with that of untreated cells.

[2] = tested on: cisplatin-resistant A549 (A549/DDP) lung cancer cells; test: MTT antiproliferative assay, A549/DDP; format: cell-based; details: A549/DDP
Procedure: as §1

[3] = Stability in human liver microsomes; format: in vitro ADME
Procedure: (§2) The metabolic stability of selected hybrids 8a,c and 9i was assessed in mouse and human microsomes, and the results were listed in Table 3.

A549 lung cancer cells = test: MTT antiproliferative assay, A549; format: cell-based; details: Homo sapiens
Procedure: as §1

[4] = Stability in mouse/human microsomes, pooled range; format: in vitro ADME
Procedure: as §2

[5] = tested on: doxorubicin-resistant A549 (A549/DOX) lung cancer cells; test: MTT antiproliferative assay, A549/DOX; format: cell-based; details: Homo sapiens
Procedure: as §1

[6] = Stability in mouse liver microsomes; format: in vitro ADME
Procedure: as §2

[7] = tested on: mouse embryonic fibroblast cells NIH/3T3; test: MTT cytotoxicity assay, NIH/3T3; format: cell-based; details: for SI (selectivity index): IC50(NIH/3T3)/IC50(A549); for IC50: Mus musculus, NIH3T3, cytotoxicity, NIH/3T3 cells, MTT (called CC50 in method)
Procedure: The antiproliferative activity of 1,2,3-triazole tethered dihydroartemisinin-isatin hybrids 8a-c and 9a-k against A549, multidrug-resistant A549/DOX and A549/DDP lung cancer cell lines as well as cytotoxicity towards mouse embryonic fibroblast cells NIH/3T3 were assessed by 3-(4,5-dimethylthiazol-2-yl)-2,5-diphenyltetrazolium bromide (MTT) assay, and half maximal inhibitory concentration (IC50) values were listed in Table 2.
The cytotoxicity (CC50) of the synthesized 1,2,3-triazole tethered dihydroartemisinin-isatin hybrids 8a-c and 9a-k were examined by the MTT assay in mouse embryonic fibroblast cells NIH/3T3. The compounds were dissolved in DMSO with concentrations from 1,024 to 1 μg/ml. The NIH/3T3 cells were maintained in culture medium at 37°C under 5% CO2 atmosphere. Cells were seeded in 96-well plates (1 × 10^4 cell per well) and allowed to recover for 24 h. After 72 h of exposure, cells were harvested and cell viability was assessed by MTT assay. The CC50 values were calculated by Bliss analy.

[8] = Pharmacokinetics in CD-1 mice; format: in vivo; details: mouse, plasma, 30 mg/kg, single intravenous administration; for clearance: read-out: Cl (clearance rate) (converted); for bioavailability: read-out: F (bioavailability); for Tmax: read-out: tmax (peak time) (converted)
Procedure: The pharmacokinetic behavior of hybrids 8a,c was determined in CD-1 mice model by single intravenous administration with dose of 30 mg/kg.
CD-1 mice (20–25 g) were used in the pharmacokinetic study, and each treatment group had 3 mice which were dosed with hybrids 8a,c suspension at 30 mg/kg by single intravenous administration. Compounds were suspended in 0.5% CMC for iv, and blood was collected from the jugular vein of each mouse at the following time points: 0.25, 0.5, 1, 2, 4, 6, 8 and 24 h after intravenous administration. Total area under the concentration time curve (AUC), the elimination half-time (t1/2), the peak concentration (Cmax) and the time to reach peak concentration (Tmax) of samples were determined directly from the experimental data using WinNonlin V6.2.1.

[9] = Homo sapiens, range over A549 and A549/DOX, read-out: IC50, range over A549 and A549/DOX
[10] = range over the three lung cancer cell lines, read-out: IC50, range over A549, A549/DOX and A549/DDP

IC50 [1, 9] | IC50 [1, 10] | IC50 [2] | Liver microsomes, Human [3] | IC50 (A549 lung cancer cells) | Liver microsomes, range over mouse and human [4] | IC50 [5] | Liver microsomes, Mouse [6] | AUC [8] | Cmax [8] | half-life [8] | clearance [8] | bioavailability [8] | Tmax [8] | Structure (SMILES) | SI (selectivity index) [7] | IC50 [7]
7.54 to 15.9 µM | 7.54 to 12.1 µM | 10.7 µM | 68% | 8.32 µM | 68–83% | 12.1 µM | 77% | 883 ng·h/mL | 6.4 µM | 3.7 h | 38.5 mL/min/kg | 35.6% | 0.2 h | C[C@@H]1CC[C@H]2[C@@H](C)C(OCc3cn(CCN4C(=O)C(=O)c5ccccc54)nn3)O[C@@H]3O[C@@]4(C)CC[C@@H]1[C@]32OO4 (stereo partly drawn) [8a, 1-(2-(4-((((3R,5aS,6R,8aS,9R,12R,12aR)-3,6,9-trimethyldecahydro-12H-3,12-epoxy[1,2]dioxepino[4,3-i]isochromen-10-yl)oxy)methyl)-1H-1,2,3-triazol-1-yl)ethyl)indoline-2,3-dione] | >12.0 | > 100 µM
7.54 to 15.9 µM | 7.54 to 12.1 µM | 8.77 µM | 83% | 7.54 µM | 68–83% | 9.89 µM | 71% | 654 ng·h/mL | 12.5 µM | 4.2 h | 52.7 mL/min/kg | 27.5% | 0.2 h | C[C@@H]1CC[C@H]2[C@@H](C)C(OCc3cn(CCN4C(=O)C(=O)c5cc(F)ccc54)nn3)O[C@@H]3O[C@@]4(C)CC[C@@H]1[C@]32OO4 (stereo partly drawn) [8c, 5-fluoro-1-(2-(4-((((3R,5aS,6R,8aS,9R,12R,12aR)-3,6,9-trimethyldecahydro-12H-3,12-epoxy[1,2]dioxepino[4,3-i]isochromen-10-yl)oxy)methyl)-1H-1,2,3-triazol-1-yl)ethyl)indoline-2,3-dione] | >13.2 | > 100 µM
